Read-outs that look alike come from different tables or passages of the source. Some results are limits rather than exact numbers.

The experiment concerns the target T1, SIRT1 (Homo sapiens, UniProt Q96EB6).
T1 sequence (Q96EB6 1-747): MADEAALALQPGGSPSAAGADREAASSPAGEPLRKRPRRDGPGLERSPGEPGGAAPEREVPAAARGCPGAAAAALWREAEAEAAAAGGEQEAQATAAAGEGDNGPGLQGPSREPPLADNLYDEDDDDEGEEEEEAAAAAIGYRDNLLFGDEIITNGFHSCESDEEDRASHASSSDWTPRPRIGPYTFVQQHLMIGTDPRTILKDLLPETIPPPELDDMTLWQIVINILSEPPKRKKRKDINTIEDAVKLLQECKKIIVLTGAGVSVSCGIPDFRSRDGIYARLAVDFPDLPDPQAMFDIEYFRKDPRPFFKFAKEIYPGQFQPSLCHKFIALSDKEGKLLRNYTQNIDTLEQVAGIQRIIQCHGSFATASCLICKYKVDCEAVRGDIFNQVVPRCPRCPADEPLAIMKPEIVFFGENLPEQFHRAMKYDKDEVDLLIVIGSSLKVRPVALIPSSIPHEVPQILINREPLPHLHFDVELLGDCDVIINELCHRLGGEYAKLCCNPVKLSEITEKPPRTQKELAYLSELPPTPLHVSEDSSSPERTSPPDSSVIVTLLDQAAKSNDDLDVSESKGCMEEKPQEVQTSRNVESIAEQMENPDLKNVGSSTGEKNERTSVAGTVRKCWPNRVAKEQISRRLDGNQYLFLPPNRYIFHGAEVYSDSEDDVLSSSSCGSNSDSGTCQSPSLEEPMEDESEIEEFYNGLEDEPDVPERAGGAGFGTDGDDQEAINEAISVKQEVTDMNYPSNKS
Kind of experiment: Mass spectrometry based SIRT1 deacetylase activation assay (acetylated p53-derived peptide substrate). Format: biochemical.

[1] abbreviates: 0.5 μM peptide substrate, 120 μM βNAD+, 10 nM SIRT1, 25 min at 25° C.
Setting [2] is: 0.5 μM peptide substrate, 120 μM βNAD+, 10 nM SIRT1, 25 min at 25° C., read-out: EC1.5.
[3] abbreviates: 0.5 μM peptide substrate, 120 μM βNAD+, 10 nM SIRT1, 25 minutes at 25° C.

Regarding `Cc1cnc(NC(=O)c2cccc3[nH]c(-c4ccc(Cl)cc4C(F)F)nc23)s1` [Compound 563], the “Fold Act. (percent maximum fold activation)” value under setting [1] is reported as “A (Fold activation >200%)”. Under setting [2], the EC1.5 was below 1000 nM.
`Cn1nc(C(F)(F)F)c(-c2nc3c(C(=O)Nc4ccccn4)cccc3[nH]2)c1Cl` [Compound 327]: the EC1.5 result is on record as “A (EC1.5<1.0 uM)” and the “Fold Act. (percent maximum fold activation)” value was “A (Fold activation >200%)”.
On to `O=C(Nc1ccccn1)c1cccc2[nH]c(-c3ccccc3OCCN3CCNCC3)nc12` [Compound 484], for which the “Fold Act. (percent maximum fold activation)” value under setting [1] is on record as “A (Fold activation >200%)”. Under setting [2], the EC1.5 lay in the range of 1000 to 25000 nM.
Take `O=C(NCc1ccccn1)c1cccc2[nH]c(-c3ccnn3-c3ccccc3)nc12` [Compound 468]: the “Fold Act. (percent maximum fold activation)” value under setting [1] is given as “B (Fold Activation <200%)”. In addition, under setting [2], the EC1.5 is above 25000 nM.
`Cn1nc(-c2ccccc2)cc1-c1nc2c(C(=O)Nc3nccs3)cccc2[nH]1` [Compound 253]: the EC1.5 entry was “A (EC1.5<1.0 uM)” and the “Fold Act. (percent maximum fold activation)” value is given as “A (Fold activation >200%)”.
Regarding `CS(=O)(=O)c1cccc(-c2nc3c(C(=O)Nc4ccccn4)cccc3[nH]2)c1` [Compound 403], under setting [1], the “Fold Act. (percent maximum fold activation)” value is given as “A (Fold activation >200%)”. The EC1.5 under setting [2] lay within 1000 to 25000 nM.
Take `O=C(Nc1ccccn1)c1cccc2[nH]c(-c3cnccc3C(F)(F)F)nc12` [Compound 704]: under setting [3], the EC1.5 result was “A (EC1.5<1.0 uM)” and the “Fold Act. (percent maximum fold activation)” value is listed as “A (Fold activation >200%)”.
Regarding `O=C(Nc1cccnc1)c1cccc2[nH]c(-c3ccnn3-c3ccccc3)nc12` [Compound 311], the EC1.5 result is “B (EC1.5 1-25 uM)” and the “Fold Act. (percent maximum fold activation)” value is “A (Fold activation >200%)”.
`Cc1cnc(NC(=O)c2cc(F)cc3nc(-c4cc(F)ccc4C(F)F)[nH]c23)s1` [Compound 836]: under setting [3], the EC1.5 entry is given as “A (EC1.5<1.0 uM)” and the “Fold Act. (percent maximum fold activation)” value is on record as “A (Fold activation >200%)”.
Turning to `O=C(Nc1nccs1)c1cccc2[nH]c(-c3ccc(-c4ccccc4)cc3)nc12` [Compound 223], the EC1.5 entry is on record as “C (EC1.5 >25 uM)” and the “Fold Act. (percent maximum fold activation)” value is “B (Fold Activation <200%)”.
Consider `Cc1cnc(NC(=O)c2cncc3nc(-c4ccc(OC[C@@H](O)CO)cc4C(F)F)[nH]c23)s1` [Compound 772], for which, under setting [3], the EC1.5 entry was “A (EC1.5<1.0 uM)” and the “Fold Act. (percent maximum fold activation)” value was “A (Fold activation >200%)”.
In the case of `Cc1nc(N2CCOCC2)sc1-c1nc2c(C(=O)Nc3cccnc3)cccc2[nH]1` [Compound 413], under setting [1], the “Fold Act. (percent maximum fold activation)” value is on record as “A (Fold activation >200%)”. Further, the EC1.5 under setting [2] is below 1000 nM.
The like results for `Cc1cc(NC(=O)c2cccc3[nH]c(-c4ccnn4-c4ccccc4)nc23)no1` [Compound 466] were, in that order, “A (Fold activation >200%)” and 1000 to 25000 nM.
In the case of `O=C(Nc1cccc(OC[C@H](O)CO)c1)c1cccc2[nH]c(-c3cccc(Cl)c3)nc12` [Compound 782], under setting [3], the EC1.5 entry was “A (EC1.5<1.0 uM)” and the “Fold Act. (percent maximum fold activation)” value is reported as “A (Fold activation >200%)”.
For the compound `O=C(Nc1cnccn1)c1cccc2[nH]c(-c3cccc(C(F)(F)F)c3)nc12` [Compound 203], the EC1.5 entry was “A (EC1.5<1.0 uM)” and the “Fold Act. (percent maximum fold activation)” value is listed as “A (Fold activation >200%)”.
For `Cc1csc(-c2nc3c(C(=O)Nc4nccs4)cccc3[nH]2)n1` [Compound 292] the same measures were “A (EC1.5<1.0 uM)” and “A (Fold activation >200%)”.
Consider `O=C(Nc1cccnc1)c1cccc2[nH]c(-c3ccc(N4CCOCC4)cc3C(F)(F)F)nc12` [Compound 430, 2-(4-morpholino-2-(trifluoromethyl)phenyl)-N-(pyridin-3-yl)-1H-benzo[d]imidazole-4-carboxamide], for which the “Fold Act. (percent maximum fold activation)” value under setting [1] was “A (Fold activation >200%)”. Besides, under setting [2], the EC1.5 is below 1000 nM.
Consider `Cc1cc(NC(=O)c2cccc3[nH]c(-c4cccc(N5CCOCC5)c4)nc23)n(C)n1` [Compound 399], for which, under setting [1], the “Fold Act. (percent maximum fold activation)” value was “A (Fold activation >200%)”. Moreover, the EC1.5 under setting [2] was below 1000 nM.
As to `O=C(Nc1cccnc1)c1cc(N2CCOCC2)cc2[nH]c(-c3ccc(Cl)cc3C(F)(F)F)nc12` [Compound 642], under setting [3], the EC1.5 entry is reported as “A (EC1.5<1.0 uM)” and the “Fold Act. (percent maximum fold activation)” value is “A (Fold activation >200%)”.
Regarding `O=C(Nc1cccnn1)c1cccc2[nH]c(-c3ccnn3-c3ccccc3)nc12` [Compound 467], the “Fold Act. (percent maximum fold activation)” value under setting [1] is “A (Fold activation >200%)”. For the same compound, the EC1.5 under setting [2] lay within 1000 to 25000 nM.
Consider `O=C(Nc1cccc(CN2CCNCC2)n1)c1cccc2[nH]c(-c3ccccc3C(F)(F)F)nc12` [Compound 682], for which, under setting [3], the EC1.5 entry was “A (EC1.5<1.0 uM)” and the “Fold Act. (percent maximum fold activation)” value is “A (Fold activation >200%)”.
As to `Cn1nc(C(F)(F)F)c(-c2nc3c(C(=O)Nc4nccs4)cccc3[nH]2)c1Cl` [Compound 295], the EC1.5 entry was “A (EC1.5<1.0 uM)” and the “Fold Act. (percent maximum fold activation)” value is “A (Fold activation >200%)”.
`Cc1cc(C)nc(NC(=O)c2cccc3[nH]c(-c4cccc(N5CCOCC5)c4)nc23)c1` [Compound 398]: the “Fold Act. (percent maximum fold activation)” value under setting [1] is recorded as “A (Fold activation >200%)”. Further, the EC1.5 under setting [2] is below 1000 nM.
Regarding `O=C(Nc1ccccn1)c1cccc2[nH]c(-c3ccc(-c4nnn[nH]4)cc3)nc12` [Compound 342], the EC1.5 result is “A (EC1.5<1.0 uM)” and the “Fold Act. (percent maximum fold activation)” value is reported as “A (Fold activation >200%)”.
For the compound `Cc1cnc(NC(=O)c2cncc3[nH]c(-c4ccc(OC[C@H](O)CO)cc4C(F)(F)F)nc23)s1` [Compound 762], under setting [3], the EC1.5 result was “A (EC1.5<1.0 uM)” and the “Fold Act. (percent maximum fold activation)” value was “A (Fold activation >200%)”.
`CC1(C)Cc2cc(-c3nc4c(C(=O)Nc5ccccn5)cccc4[nH]3)ccc2O1` [Compound 498]: under setting [1], the “Fold Act. (percent maximum fold activation)” value is “B (Fold Activation <200%)”. Also, the EC1.5 under setting [2] is 1000 to 25000 nM.
The like results for `O=C(Nc1ccccn1)c1cccc2[nH]c(-c3ccccc3OCCN3CCCC3)nc12` [Compound 472] were, in that order, “B (Fold Activation <200%)” and 1000 to 25000 nM.
Turning to `Cc1cnc(NC(=O)c2cc(N3CCCC3)cc3[nH]c(-c4ccccc4C(F)F)nc23)s1` [Compound 790], under setting [3], the EC1.5 result was “A (EC1.5<1.0 uM)” and the “Fold Act. (percent maximum fold activation)” value is given as “A (Fold activation >200%)”.
For the compound `Cn1cc(-c2nc3c(C(=O)Nc4nccs4)cccc3[nH]2)c(C(F)(F)F)n1` [Compound 477], the “Fold Act. (percent maximum fold activation)” value under setting [1] is on record as “A (Fold activation >200%)”. In addition, the EC1.5 under setting [2] was below 1000 nM.
As to `Cc1cccc(-c2nc3c(C(=O)Nc4nccs4)cccc3[nH]2)c1OCCN1CCOCC1` [Compound 626], under setting [3], the EC1.5 result is “B (EC1.5 1-25 uM)” and the “Fold Act. (percent maximum fold activation)” value is recorded as “A (Fold activation >200%)”.
In the case of `O=C(Nc1cccc(CN2CCOCC2)n1)c1cccc2[nH]c(-c3cc(F)cc(F)c3)nc12` [Compound 852], under setting [3], the EC1.5 result is given as “A (EC1.5<1.0 uM)” and the “Fold Act. (percent maximum fold activation)” value is reported as “A (Fold activation >200%)”.
Take `O=C(Nc1cccc(OC2CCNC2)c1)c1cccc2[nH]c(-c3ccccc3C(F)(F)F)nc12` (stereo not shown) [Compound 526]: the “Fold Act. (percent maximum fold activation)” value under setting [1] is “A (Fold activation >200%)”. In addition, the EC1.5 under setting [2] is below 1000 nM.
For the compound `O=C(Nc1ccc(OC[C@H](O)CO)cc1)c1cccc2[nH]c(-c3cccc(N4CCOCC4)c3)nc12` [Compound 777], under setting [3], the EC1.5 entry was “A (EC1.5<1.0 uM)” and the “Fold Act. (percent maximum fold activation)” value is listed as “A (Fold activation >200%)”.
With `Cc1nc(-c2ccccc2)sc1-c1nc2c(C(=O)Nc3nccs3)cccc2[nH]1` [Compound 408], the “Fold Act. (percent maximum fold activation)” value under setting [1] is listed as “A (Fold activation >200%)”. The EC1.5 under setting [2] is below 1000 nM.
Take `O=C(Nc1cccc(OC[C@H](O)CO)c1)c1cccc2[nH]c(-c3ccncc3)nc12` [Compound 783]: under setting [3], the EC1.5 result is “A (EC1.5<1.0 uM)” and the “Fold Act. (percent maximum fold activation)” value is given as “A (Fold activation >200%)”.
On to `CCCN1CCCc2ccc(-c3nc4c(C(=O)Nc5ncc(C)s5)cccc4[nH]3)cc21` [Compound 602], for which, under setting [3], the EC1.5 entry is reported as “B (EC1.5 1-25 uM)” and the “Fold Act. (percent maximum fold activation)” value is listed as “A (Fold activation >200%)”.
Regarding `O=C(Nc1cccc(OC[C@H](O)CO)c1)c1cncc2[nH]c(-c3ccccc3C(F)F)nc12` [Compound 713], under setting [3], the EC1.5 result was “A (EC1.5<1.0 uM)” and the “Fold Act. (percent maximum fold activation)” value is recorded as “A (Fold activation >200%)”.
In the case of `Cc1nc(-c2ccccc2)c(-c2nc3c(C(=O)Nc4ccccn4)cccc3[nH]2)s1` [Compound 369], the EC1.5 entry was “A (EC1.5<1.0 uM)” and the “Fold Act. (percent maximum fold activation)” value was “A (Fold activation >200%)”.

The values are drawn from patent publication US8846947B2, “Benzimidazoles and related analogs as sirtuin modulators” (GlaxoSmithKline LLC, priority 2008, dated 2014).
